Laboratory results reported in patent US20050222402A1, “Dna encoding rat bombesin receptor subtype-3 (brs-3) and uses thereof” (priority 2001, published 2005).
Changes are numbered by the printed parent chain. Non-standard residues stand in square brackets, D forms with d. Residues, ends and D or L forms follow the SMILES beside them. Nle = CCCC[C@H](N)C(=O)O; βAla = NCCC(=O)O

Key:
rat BRS-3 = biological target: T1, rat BRS-3 (Rattus norvegicus, UniProt Q8K418); assay: Radioligand binding assay with 125I-dYB
T1 construct: utilized to PCR amplify full-length rat BRS-3 cDNA; expressed in transfected cells; host or cells: 293EBNA cells, pE3 expression vector
T1 sequence (Q8K418 1-399): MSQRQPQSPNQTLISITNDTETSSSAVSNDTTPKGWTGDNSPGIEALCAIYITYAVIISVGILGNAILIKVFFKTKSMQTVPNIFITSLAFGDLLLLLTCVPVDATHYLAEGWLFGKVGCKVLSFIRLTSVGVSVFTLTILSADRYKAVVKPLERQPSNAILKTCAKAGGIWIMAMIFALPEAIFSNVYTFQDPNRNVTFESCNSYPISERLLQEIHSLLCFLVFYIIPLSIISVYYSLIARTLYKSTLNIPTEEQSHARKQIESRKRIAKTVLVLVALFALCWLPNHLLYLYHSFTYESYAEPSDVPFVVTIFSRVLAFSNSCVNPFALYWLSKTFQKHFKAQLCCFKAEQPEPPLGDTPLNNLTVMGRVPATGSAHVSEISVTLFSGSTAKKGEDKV
Experimental: (§1) Peptide dYB (dY-Q-W-A-V-(beta-A)-H-F-Nle-amide) (SEQ ID NO:10) was made by Research Genetics (Huntsville, Ala.) and custom labeled by NEN Life Science (NEN, Boston, Mass.) with a ^125I on the dY phenyl ring. The specific activity of ^125I-dYB is 2200 ci/mmol. The 293EBNA cells expressing wild type or mutant BRS-3 grown in 150-mm^2 dishes were harvested in binding buffer (50 mM HEPES, pH 7.4, 5 mM MgCl2, 0.1% BSA) and disrupted with Dounce homogenization.
(§2) After removal of cell nuclei by a low speed centrifugation (1000×g) step, the cell membrane proteins were collected by centrifugation at 35,000×g for 20 minutes. The membrane protein concentration was determined by the Bradford method using BSA as standard.
(§3) For binding assays, ˜20 ug membrane proteins were incubated with 0.25 nM ^125I-dYB and various concentrations of competitors in 200 ul binding buffer. After a 2 hr incubation at room temperature, the binding reaction was terminated by filtering through a GF/c filter-mate and washing the filter with binding buffer using Packard 96-well Topcount Harvester. The amount of radioligand bound to the receptor was determined by measurement of the radioactivity on the filter through liquid scintillation counting. The non-specific binding was defined as the binding in the presence of 1 uM unlabeled dYB.

[1] = test system: human bombesin receptor subtypes, including human BRS-3; conditions: Pradhan et al. 1998; Ryan et al. 1998; cited from earlier work
Rat BRS-3/E3 (RB3-E3) = biological target: T2, Rat BRS-3/E3 (RB3-E3) (Rattus norvegicus, UniProt Q8K418, A302V/D306A/E299Q/E303D/P308H/S300T/V307M/V310I/V311F/Y298S); assay: Calcium mobilization assay (FLIPR), chimeric receptor; assay type: cell-based, rat/human
T2 construct: expressed in transfected cells; host or cells: 293EBNA cells, pE3 expression vector
T2 sequence (Q8K418 1-399 Y298S/E299Q/S300T/A302V/E303D/D306A/V307M/P308H/V310I/V311F): T1 sequence (Q8K418 1-399) with Y298S, E299Q, S300T, A302V, E303D, D306A, V307M, P308H, V310I, V311F
From the text: Chimeric rat/human BRS-3 genes and substitution mutant rat BRS-3 genes were constructed by using PCR mutagenesis techniques (Fong, T. in Structure-function analysis of G protein coupled receptors, J, Wess, ed, Wiley-Liss, pp. 1-20, (1999)). All the mutant and wild type BRS-3 genes were cloned into pE3 expression vector which contains CMV early promoter, hygromycin-resistance gene and OriP segment from Epstein-Bar virus.
The functional activity of rat BRS-3 was also studied by measuring the agonist-induced calcium mobilization response using a Fluorescence Imaging Plate Reader (Molecular Devices, Sunnyvale, Calif.). Transfected 293EBNA cells were plated onto poly-D-lysine coated 96-well plates with black wall and clear bottom (Becton Dickinson, Franklin Lakes, N.J.). After 16-48 hr culture, the cells were loaded with 4 uM Fluo-3-AM fluorescent calcium-indicator dye (Molecular Probes, Eugene, OR) in assay buffer (Hank's balanced salts solution, 10 mM HEPES, pH7.4, 0.1% bovine serum albumin, 2.5 mM probenecid).
The changes in intracellular calcium concentration, as indicated by Fluo-3 fluorescence, were immediately measured by FLIPR. Maximal changes in fluorescence over base line were used to determine agonist response. […]
The EC50 values were mean±S.E. calculated from dose-response curves of 3-5 repeated experiments using FLIPR assays.

human BRS-3 = biological target: T3, human BRS-3 (Homo sapiens, UniProt P32247); assay: Radioligand binding assay with 125I-dYB
T3 construct: expressed in transfected cells; host or cells: 293EBNA cells, pE3 expression vector
T3 sequence (P32247 1-399): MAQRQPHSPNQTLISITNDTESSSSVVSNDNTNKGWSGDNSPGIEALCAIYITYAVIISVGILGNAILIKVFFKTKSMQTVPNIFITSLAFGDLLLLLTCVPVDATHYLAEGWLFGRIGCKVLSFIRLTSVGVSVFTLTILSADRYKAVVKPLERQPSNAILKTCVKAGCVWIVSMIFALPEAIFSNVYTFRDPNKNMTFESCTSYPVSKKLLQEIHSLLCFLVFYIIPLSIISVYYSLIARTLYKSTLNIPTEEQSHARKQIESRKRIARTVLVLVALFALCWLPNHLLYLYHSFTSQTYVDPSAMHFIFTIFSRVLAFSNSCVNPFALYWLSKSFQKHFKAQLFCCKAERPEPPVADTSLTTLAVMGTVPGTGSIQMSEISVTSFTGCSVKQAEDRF
Experimental: as §1, §2, §3

RBB3-E3 = biological target: T4, RBB3-E3 (Rattus norvegicus, UniProt Q8K418, A302V/D306A/E299Q/E303D/P308H/S300T/V307M/V310I/V311F/Y298S); assay: Radioligand binding assay with 125I-dYB; set-up: species or system rat/human; conditions: displacement of [125I]dYB by unlabeled dYB
T4 construct: expressed in transfected cells; host or cells: 293EBNA cells, pE3 expression vector
T4 sequence (Q8K418 1-399 Y298S/E299Q/S300T/A302V/E303D/D306A/V307M/P308H/V310I/V311F): T1 sequence (Q8K418 1-399) with Y298S, E299Q, S300T, A302V, E303D, D306A, V307M, P308H, V310I, V311F
Experimental: as §2
as §3, with “After” for “For binding assays, ˜20 ug membrane proteins were incubated with 0.25 nM ^125I-dYB and various concentrations of competitors in 200 ul binding buffer. After”

Row | SMILES | specific binding to rat BRS-3 (rat BRS-3) | affinity and potency reported [1] | EC50 (Rat BRS-3/E3 (RB3-E3)) | Ki (human BRS-3) | Ki (RBB3-E3)
1 | CCCC[C@H](NC(=O)[C@H](Cc1ccccc1)NC(=O)[C@H](Cc1c[nH]cn1)NC(=O)CCNC(=O)[C@@H](NC(=O)[C@H](C)NC(=O)[C@H](Cc1c[nH]c2ccccc12)NC(=O)[C@H](CCC(N)=O)NC(=O)[C@H](N)Cc1ccc(O)cc1)C(C)C)C(N)=O [dYB, [D-Tyr6-betaAla11-Phe13-Nle14] bombesin (6-14)] (H-[dY]QWAV[βAla]HF[Nle]-NH2) | undetectable | nanomolar high affinity and high potency | – | – | –
2 | CCCC[C@H](NC(=O)[C@H](Cc1ccccc1)NC(=O)[C@H](Cc1cnc[nH]1)NC(=O)CCNC(=O)[C@@H](NC(=O)[C@H](C)NC(=O)[C@H](Cc1c[nH]c2ccccc12)NC(=O)[C@H](CCC(N)=O)NC(=O)[C@H](N)Cc1ccc(O)cc1)C(C)C)C(N)=O [dYB, [D-Tyr6-betaAla11-Phe13-Nle14] bombesin (6-14)] (H-[dY]QWAV[βAla]HF[Nle]-NH2) | – | – | 2.8 ± 0.6 nM | 1.8 ± 0.6 nM | 1.2 ± 0.7 nM
